Counter-ions that a name gives are not always drawn.
Experiments:
[1] = ziprasidone administered orally; cited from earlier work
D2 dopamine receptors = D2 dopamine receptors (Homo sapiens, UniProt P14416); experiment: Competition radioreceptor assay, D2 dopamine receptors; conditions: 90 minute incubation; (+)-butaclamol (0.25 μM) defining nonspecific binding; read-out: KD of radioligand
Protocol: Competition radioreceptor assays are used to determine the affinity (IC50's) of the phenylaminotetralins and other reference ligands for D2 dopamine receptors. […] Jarvie, J. R. et al., Eur. J. Pharmacol., 144:163–171 (1987) and Kula, N. S. et al., Dev. Brain Res., 66:286–287 (1992). […] Test agents are evaluated by running, in duplicate, six or more concentrations that bracketed the IC50. Three replications are performed, and the resulting data are analyzed using the ALLFIT program.

5-HT2 receptor = conditions: Seeger et al. 1995; cited from earlier work
dopamine D2 receptor = dopamine D2 receptor (Homo sapiens, UniProt P14416); conditions: Seeger et al. 1995; cited from earlier work
dopamine D2 receptor, sequence (P14416 whole entry, species assumed): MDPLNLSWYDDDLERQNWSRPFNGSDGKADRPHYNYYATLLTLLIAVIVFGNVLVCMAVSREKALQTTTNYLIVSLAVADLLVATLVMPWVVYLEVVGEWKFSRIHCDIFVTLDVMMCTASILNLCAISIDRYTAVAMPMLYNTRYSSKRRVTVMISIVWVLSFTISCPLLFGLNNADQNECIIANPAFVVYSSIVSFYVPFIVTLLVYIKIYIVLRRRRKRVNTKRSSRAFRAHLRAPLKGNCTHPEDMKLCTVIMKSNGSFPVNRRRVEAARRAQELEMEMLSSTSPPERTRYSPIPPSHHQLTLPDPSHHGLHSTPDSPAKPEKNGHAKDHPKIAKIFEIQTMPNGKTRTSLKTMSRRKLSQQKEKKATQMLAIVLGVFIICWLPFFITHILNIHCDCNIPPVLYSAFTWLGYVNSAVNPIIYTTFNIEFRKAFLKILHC

5-HT1A = target: T1, 5-HT1A (Homo sapiens, UniProt P08908); conditions: Seeger et al. 1995; cited from earlier work
T1 sequence (P08908 1-422): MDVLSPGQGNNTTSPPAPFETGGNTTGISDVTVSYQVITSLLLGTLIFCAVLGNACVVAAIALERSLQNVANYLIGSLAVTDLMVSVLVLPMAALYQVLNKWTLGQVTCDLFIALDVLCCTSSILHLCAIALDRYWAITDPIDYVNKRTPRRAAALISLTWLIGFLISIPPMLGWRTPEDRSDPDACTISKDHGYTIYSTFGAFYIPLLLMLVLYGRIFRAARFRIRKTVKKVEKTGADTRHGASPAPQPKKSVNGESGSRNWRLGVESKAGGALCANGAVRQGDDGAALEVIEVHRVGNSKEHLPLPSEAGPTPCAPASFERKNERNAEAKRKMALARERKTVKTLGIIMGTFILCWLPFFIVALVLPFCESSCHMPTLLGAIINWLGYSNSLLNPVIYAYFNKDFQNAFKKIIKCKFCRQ

5-HT1D = 5-HT1D (Homo sapiens, UniProt P28221); conditions: Seeger et al. 1995; cited from earlier work
5-HT1D, sequence (P28221 whole entry, species assumed): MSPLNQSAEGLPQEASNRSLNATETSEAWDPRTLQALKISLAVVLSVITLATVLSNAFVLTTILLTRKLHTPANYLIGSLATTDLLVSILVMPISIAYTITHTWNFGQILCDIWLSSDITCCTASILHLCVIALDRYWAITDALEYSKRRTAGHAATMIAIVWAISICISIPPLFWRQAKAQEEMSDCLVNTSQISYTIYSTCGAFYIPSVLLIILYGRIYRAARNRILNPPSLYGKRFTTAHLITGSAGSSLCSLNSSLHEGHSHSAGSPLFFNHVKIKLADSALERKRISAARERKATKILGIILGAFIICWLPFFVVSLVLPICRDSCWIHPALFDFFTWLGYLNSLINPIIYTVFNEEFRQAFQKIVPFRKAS

5-HT2C = target: T2, 5-HT2C (Homo sapiens, UniProt P28335); conditions: Seeger et al. 1995; cited from earlier work
T2 sequence (P28335 33-458): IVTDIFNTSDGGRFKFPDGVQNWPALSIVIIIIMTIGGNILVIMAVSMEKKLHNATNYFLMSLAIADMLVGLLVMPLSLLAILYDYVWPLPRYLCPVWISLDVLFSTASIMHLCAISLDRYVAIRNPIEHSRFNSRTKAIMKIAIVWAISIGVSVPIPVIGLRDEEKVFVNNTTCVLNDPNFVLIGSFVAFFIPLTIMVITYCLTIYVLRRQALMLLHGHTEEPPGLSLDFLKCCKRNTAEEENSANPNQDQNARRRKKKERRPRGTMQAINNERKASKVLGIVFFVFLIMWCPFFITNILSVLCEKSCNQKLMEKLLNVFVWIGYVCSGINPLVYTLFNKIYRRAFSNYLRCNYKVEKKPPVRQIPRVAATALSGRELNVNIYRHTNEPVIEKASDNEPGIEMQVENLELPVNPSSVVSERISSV

D2 dopamine receptors, sequence (P14416 whole entry): as the sequence (P14416 whole entry, species assumed) above

O=C1Cc2cc(CCN3CCN(C4=NS(=O)(=O)c5ccccc54)CC3)c(Cl)cc2N1 [ZIP-SO2, ziprasidone sulfone]
share of ziprasidone metabolites found in human urine [1]: less than 3%

O=C1Cc2cc(CCN3CCN(c4n[s+]([O-])c5ccccc45)CC3)c(Cl)cc2N1 (centres unmarked) [ZIP-SO, ziprasidone sulfoxide]
share of ziprasidone metabolites found in human urine [1]: less than 10%

CN1CCc2cc(Cl)c(O)cc2C(c2ccccc2)C1 (centres unmarked) [[^3H]SCH23390]
Kd (D2 dopamine receptors): 0.34 nM

O=C1Cc2cc(CCN3CCN(c4nsc5ccccc45)CC3)c(Cl)cc2N1 [ziprasidone, (5-[2-{4-(1,2-benzisothiazol-3-yl)piperizin-1-yl}ethyl]-6-chlorooxindole)hydrochloride hydrate]
5-HT2 receptor antagonist (5-HT2 receptor): highly potent and selective | dopamine D2 receptor antagonist (dopamine D2 receptor): highly potent and selective | affinity for 5-HT1A receptor subtype (5-HT1A): high affinity | affinity for 5-HT1D receptor subtype (5-HT1D): high affinity | affinity for 5-HT2C receptor subtype (5-HT2C): high affinity
